According to patent publication US6770597B2, “Benzohydrazide derivatives as herbicides and desiccant compositions containing them” (Ishihara Sangyo Kaisha, Ltd., priority 2002, dated 2004):

Tests used:
Format in all cases: in vivo
[1] = tested on: common ragweed (Ambrosia artemisiifolia L., AMBEL); assay: Greenhouse herbicide screen, post-emerge application, phytotoxicity rating; conditions: POST emergent, 14 days after application, scale 0-100
Source text: (§1) A standard greenhouse herbicide activity screening system was used to evaluate the herbicidal efficacy and crop safety of these test compounds. Seven broadleaf weed species including redroot pigweed (Amaranthus retrofiexus, AMARE), velvetleaf (Abutilon theophrasti, ABUTH), sicklepod (Cassia obtusifolia, CASOB), ivyleaf morningglory (Ipomoea hederacea, IPOHE), lambsquarters (Chenopodium album, CHEAL), common ragweed (Ambrosia artemisiifolia L., AMBEL), and cocklebur (Xanthium strumarium, XANST) were used as test species. Four grass weed species including green foxtail (Setaria viridis, SETVI), barnyardgrass (Echinochloa crus-galli, ECHCG), johnsongrass (Sorghum halepense, SORHA), and large crabgrass (Digitaria sanguinalis, DIGSA) were also used. In addition, four crop species, field corn (Zea mays L., var. Dekalb 535, CORN), soybean (Glycine max L., var. Pella 86, SOY), upland rice (Oryza sp., var.Cocodrie, RICE) and wheat (Triticum aestivum L.) were included.
(§2) All plants were grown in 10 cm square plastic pots which were filled with a sandy loam soil mix. For pre-emerge tests, seeds were planted one day prior to application of the test compounds. For post-emerge tests, seeds were planted 8-21 days prior to the test to allow emergence and good foliage development prior to application of the test substances. At the time of the post-emerge application, plants of all species were usually at the 2-3 leaf stage of development.
(§3) All test compounds were dissolved in acetone and applied to the test units in a volume of 187 l/ha. Test materials were applied at rates ranging from 15 g ai/ha to 1000 g ai/ha using a track sprayer equipped with a TJ8001E even flow flat fan spray nozzle. Plants were arranged on a shelf so that the top of the canopy (post-emerge) or top of the soil surface (pre-emerge) was 40-45 cm below the nozzle. Pressurized air was used to force the test solution through the nozzle as it was mechanically advanced (via electrically driven chain drive) over the top of all test plants/pots. This application simulates a typical commercial field herbicide application.
(§4) Pre-emergence tests were top watered immediately after treatment to incorporate the test materials, then routinely top-watered for normal growth. Post-emerge test units were always bottom-watered.
(§5) At 14 days after application of the test materials, phytotoxicity ratings were recorded. A rating scale of 0-100 was used as previously described in Research Methods in Weed Science, 2nd edition, B. Truelove, Ed., Southern Weed Science Society, Auburn University, Auburn, Ala., 1977. Briefly, “0” corresponds to no damage and “100” corresponds to complete death of all plants in the test unit. This scale was used both to determine efficacy against weed species and damage to crop species. Herbicide activity data for various compounds of this invention, which are shown by compound No. in Tables 1-12, are shown in Tables 13 and 14.

[2] = tested on: lambsquarters (Chenopodium album, CHEAL); assay: as above; conditions: POST emergent, 14 days after application, scale 0-100
Source text: as §1, §2, §3, §4, §5

[3] = tested on: cocklebur (Xanthium strumarium, XANST); assay: as above; conditions: POST emergent, 14 days after application, scale 0-100
Source text: as §1, §2, §3, §4, §5

[4] = tested on: green foxtail (Setaria viridis, SETVI); assay: as above; conditions: POST emergent, 14 days after application, scale 0-100
Source text: as §1, §2, §3, §4, §5

[5] = tested on: sicklepod (Cassia obtusifolia, CASOB); assay: as above; conditions: POST emergent, 14 days after application, scale 0-100
Source text: as §1, §2, §3, §4, §5

[6] = tested on: barnyardgrass (Echinochloa crus-galli, ECHCG); assay: as above; conditions: POST emergent, 14 days after application, scale 0-100
Source text: as §1, §2, §3, §4, §5

[7] = tested on: ivyleaf morningglory (Ipomoea hederacea, IPOHE); assay: as above; conditions: POST emergent, 14 days after application, scale 0-100
Source text: as §1, §2, §3, §4, §5

[8] = tested on: large crabgrass (Digitaria sanguinalis, DIGSA); assay: as above; conditions: POST emergent, 14 days after application, scale 0-100
Source text: as §1, §2, §3, §4, §5

[9] = tested on: johnsongrass (Sorghum halepense, SORHA); assay: as above; conditions: POST emergent, 14 days after application, scale 0-100
Source text: as §1, §2, §3, §4, §5

[10] = tested on: velvetleaf (Abutilon theophrasti, ABUTH); assay: as above; conditions: POST emergent, 14 days after application, scale 0-100
Source text: as §1, §2, §3, §4, §5

[11] = tested on: redroot pigweed (Amaranthus retrofiexus, AMARE); assay: as above; conditions: POST emergent, 14 days after application
Source text: as §1, §2, §3, §4, §5

[12] = tested on: common ragweed (Ambrosia artemisiifolia L., AMBEL); assay: Greenhouse herbicide screen, pre-emerge application, phytotoxicity rating; conditions: PRE emergent, 14 days after application, rating scale 0-100
Source text: as §1, §2, §3, §4, §5

[13] = tested on: lambsquarters (Chenopodium album, CHEAL); assay: as above; conditions: PRE emergent, 14 days after application, rating scale 0-100
Source text: as §1, §2, §3, §4, §5

[14] = tested on: cocklebur (Xanthium strumarium, XANST); assay: as above; conditions: PRE emergent, 14 days after application, rating scale 0-100
Source text: as §1, §2, §3, §4, §5

[15] = tested on: green foxtail (Setaria viridis, SETVI); assay: as above; conditions: PRE emergent, 14 days after application, rating scale 0-100
Source text: as §1, §2, §3, §4, §5

[16] = tested on: sicklepod (Cassia obtusifolia, CASOB); assay: as above; conditions: PRE emergent, 14 days after application, rating scale 0-100
Source text: as §1, §2, §3, §4, §5

[17] = tested on: barnyardgrass (Echinochloa crus-galli, ECHCG); assay: as above; conditions: PRE emergent, 14 days after application, rating scale 0-100
Source text: as §1, §2, §3, §4, §5

[18] = tested on: ivyleaf morningglory (Ipomoea hederacea, IPOHE); assay: as above; conditions: PRE emergent, 14 days after application, rating scale 0-100
Source text: as §1, §2, §3, §4, §5

[19] = tested on: large crabgrass (Digitaria sanguinalis, DIGSA); assay: as above; conditions: PRE emergent, 14 days after application, rating scale 0-100
Source text: as §1, §2, §3, §4, §5

[20] = tested on: johnsongrass (Sorghum halepense, SORHA); assay: as above; conditions: PRE emergent, 14 days after application, rating scale 0-100
Source text: as §1, §2, §3, §4, §5

[21] = tested on: velvetleaf (Abutilon theophrasti, ABUTH); assay: as above; conditions: PRE emergent, 14 days after application, rating scale 0-100
Source text: as §1, §2, §3, §4, §5

[22] = tested on: redroot pigweed (Amaranthus retrofiexus, AMARE); assay: as above; conditions: PRE emergent, 14 days after application, rating scale 0-100
Source text: as §1, §2, §3, §4, §5

[23] = 63 g ai/ha, scale 0-100 (0 no damage, 100 complete death)

SMILES: CC(=NNC(=O)c1cc(-n2c(=O)cc(C(F)(F)F)n(C)c2=O)c(F)cc1Cl)C(C)(C)C [Compound 6-5, 2-chloro-5-(3,6-dihydro-3-methyl-2,6-dioxo-4-(trifluoromethyl)-1(2H)-pyrimidinyl)-4-fluoro-benzoic Acid, 2-(1,2,2-trimethylpropylidene)hydrazide]
- phytotoxicity rating AMBEL ([1]; 63 g ai/ha): 60
- phytotoxicity rating AMBEL ([1]; 250 g ai/ha): 80
- phytotoxicity rating CHEAL ([2]; 63 g ai/ha): 60
- phytotoxicity rating CHEAL ([2]; 250 g ai/ha): 95
- phytotoxicity rating XANST ([3]; 63 g ai/ha): 70
- phytotoxicity rating XANST ([3]; 250 g ai/ha): 100
- phytotoxicity rating SETVI ([4]; 63 g ai/ha): 30
- phytotoxicity rating SETVI ([4]; 250 g ai/ha): 55
- phytotoxicity rating CASOB ([5]; 63 g ai/ha): 50
- phytotoxicity rating CASOB ([5]; 250 g ai/ha): 65
- phytotoxicity rating ECHCO ([6]; 63 g ai/ha): 80
- phytotoxicity rating ECHCO ([6]; 250 g ai/ha): 95
- phytotoxicity rating IPOHE ([7]; 63 g ai/ha): 75
- phytotoxicity rating IPOHE ([7]; 250 g ai/ha): 100
- phytotoxicity rating DIGSA ([8]; 63 g ai/ha): 75
- phytotoxicity rating DIGSA ([8]; 250 g ai/ha): 80
- phytotoxicity rating SORHA ([9]; 63 g ai/ha): 0
- phytotoxicity rating SORHA ([9]; 250 g ai/ha): 90
- phytotoxicity rating ABUTH ([10]; 63 g ai/ha): 65
- phytotoxicity rating ABUTH ([10]; 250 g ai/ha): 100
- phytotoxicity rating AMARE [11, 23]: 70
- phytotoxicity rating AMARE ([11]; 250 g ai/ha, scale 0-100): 100
- phytotoxicity rating AMBEL ([12]; 63 g ai/ha): 70
- phytotoxicity rating AMBEL ([12]; 250 g ai/ha): 100
- phytotoxicity rating CHEAL ([13]; 63 g ai/ha): 99
- phytotoxicity rating CHEAL ([13]; 250 g ai/ha): 100
- phytotoxicity rating XANST ([14]; 63 g ai/ha): 55
- phytotoxicity rating XANST ([14]; 250 g ai/ha): 99
- phytotoxicity rating SETVI ([15]; 63 g ai/ha): 60
- phytotoxicity rating SETVI ([15]; 250 g ai/ha): 85
- phytotoxicity rating CASOB ([16]; 63 g ai/ha): 50
- phytotoxicity rating CASOB ([16]; 250 g ai/ha): 70
- phytotoxicity rating ECHCG ([17]; 63 g ai/ha): 55
- phytotoxicity rating ECHCG ([17]; 250 g ai/ha): 90
- phytotoxicity rating IPOHE ([18]; 63 g ai/ha): 100
- phytotoxicity rating IPOHE ([18]; 250 g ai/ha): 100
- phytotoxicity rating DIGSA ([19]; 63 g ai/ha): 90
- phytotoxicity rating DIGSA ([19]; 250 g ai/ha): 99
- phytotoxicity rating SORHA ([20]; 63 g ai/ha): 85
- phytotoxicity rating SORHA ([20]; 250 g ai/ha): 99
- phytotoxicity rating ABUTH ([21]; 63 g ai/ha): 95
- phytotoxicity rating ABUTH ([21]; 250 g ai/ha): 100
- phytotoxicity rating AMARE ([22]; 63 g ai/ha): 99
- phytotoxicity rating AMARE ([22]; 250 g ai/ha): 100

SMILES: CN(N=C(C(C)(C)C)C(C)(C)C)C(=O)c1cc(-n2c(=O)cc(C(F)(F)F)n(C)c2=O)c(F)cc1Cl [Compound 6-8, 2-chloro-5-(3,6-dihydro-3-methyl-2,6-dioxo-4-(trifluoromethyl)-1(2H)-pyrimidinyl)-4-fluoro-benzoic acid, 2-[1-(1,1-dimethylethyl)-2,2-dimethylpropylidene]-1-methylhydrazide]
- phytotoxicity rating AMBEL ([1]; 63 g ai/ha): 70
- phytotoxicity rating AMBEL ([1]; 250 g ai/ha): 70
- phytotoxicity rating CHEAL ([2]; 63 g ai/ha): 80
- phytotoxicity rating CHEAL ([2]; 250 g ai/ha): 100
- phytotoxicity rating XANST ([3]; 63 g ai/ha): 35
- phytotoxicity rating XANST ([3]; 250 g ai/ha): 100
- phytotoxicity rating SETVI ([4]; 63 g ai/ha): 50
- phytotoxicity rating SETVI ([4]; 250 g ai/ha): 75
- phytotoxicity rating CASOB ([5]; 63 g ai/ha): 50
- phytotoxicity rating CASOB ([5]; 250 g ai/ha): 60
- phytotoxicity rating ECHCO ([6]; 63 g ai/ha): 60
- phytotoxicity rating ECHCO ([6]; 250 g ai/ha): 85
- phytotoxicity rating IPOHE ([7]; 63 g ai/ha): 100
- phytotoxicity rating IPOHE ([7]; 250 g ai/ha): 100
- phytotoxicity rating DIGSA ([8]; 63 g ai/ha): 50
- phytotoxicity rating DIGSA ([8]; 250 g ai/ha): 60
- phytotoxicity rating SORHA ([9]; 63 g ai/ha): 65
- phytotoxicity rating SORHA ([9]; 250 g ai/ha): 95
- phytotoxicity rating ABUTH ([10]; 63 g ai/ha): 50
- phytotoxicity rating ABUTH ([10]; 250 g ai/ha): 100
- phytotoxicity rating AMARE [11, 23]: 99
- phytotoxicity rating AMARE ([11]; 250 g ai/ha, scale 0-100): 100
- phytotoxicity rating AMBEL ([12]; 63 g ai/ha): 0
- phytotoxicity rating AMBEL ([12]; 250 g ai/ha): 99
- phytotoxicity rating CHEAL ([13]; 63 g ai/ha): 100
- phytotoxicity rating CHEAL ([13]; 250 g ai/ha): 100
- phytotoxicity rating XANST ([14]; 63 g ai/ha): 0
- phytotoxicity rating XANST ([14]; 250 g ai/ha): 70
- phytotoxicity rating SETVI ([15]; 63 g ai/ha): 55
- phytotoxicity rating SETVI ([15]; 250 g ai/ha): 99
- phytotoxicity rating CASOB ([16]; 63 g ai/ha): 20
- phytotoxicity rating CASOB ([16]; 250 g ai/ha): 70
- phytotoxicity rating ECHCG ([17]; 63 g ai/ha): 30
- phytotoxicity rating ECHCG ([17]; 250 g ai/ha): 85
- phytotoxicity rating IPOHE ([18]; 63 g ai/ha): 60
- phytotoxicity rating IPOHE ([18]; 250 g ai/ha): 100
- phytotoxicity rating DIGSA ([19]; 63 g ai/ha): 60
- phytotoxicity rating DIGSA ([19]; 250 g ai/ha): 95
- phytotoxicity rating SORHA ([20]; 63 g ai/ha): 55
- phytotoxicity rating SORHA ([20]; 250 g ai/ha): 100
- phytotoxicity rating ABUTH ([21]; 63 g ai/ha): 99
- phytotoxicity rating ABUTH ([21]; 250 g ai/ha): 99
- phytotoxicity rating AMARE ([22]; 63 g ai/ha): 100
- phytotoxicity rating AMARE ([22]; 250 g ai/ha): 100
